# Measured values: ChEMBL document CHEMBL1122601, “Novel tetracyclic spiropiperidines. 4. Synthesis and pharmacological evaluation of spiro- and 6,7-dihydrospiro[benzo[b]pyrrolo[3,2,1-jk][1,4]benzodiazepine-2 (1H),4'-piperidine]s” (1984)
# Tests used:
# Format in all cases: functional
# [1] = system: Mus musculus; assay: Antidepressant activity by injecting 20 mg/kg of compound intraperitoneally and measuring the ability to prevent tetrabenazine (TBZ) induced ptosis in mice.; details: ip, route intraperitoneal
# [2] = system: Mus musculus; assay: Analgesic activity by injecting compound subcutaneously and measuring the inhibition of phenyl-p-benzoquinone-induced writhing (PQW) in mice.; details: sc
# [3] = organism: Mus musculus; assay: Antidepressant activity by injecting compound perorally and measuring the ability to prevent tetrabenazine (TBZ) induced ptosis in mice.
# [4] = system: Mus musculus; assay: Antidepressant activity by injecting compound intraperitoneally and measuring the ability to prevent tetrabenazine (TBZ) induced ptosis in mice.; details: ip
SMILES,inhibition in vivo at 20 mg/kg [1],ED50 [2],ED50 [3],ED50 [4]
CN1CCC2(CC1)CN1c3ccccc3N=Cc3cccc2c31,20%,–,–,–
CC1=Nc2ccccc2N2CC3(CCN(C)CC3)c3cccc1c32.Cl.Cl,50%,4.7 mg/kg,–,–
CC1Nc2ccccc2N2CC3(CCN(C)CC3)c3cccc1c32.Cl.Cl (stereo not drawn),20%,9.73 mg/kg,–,–
CN1CCC2(CC1)CN(c1ccccc1N)c1ccccc12,–,11.6 mg/kg,1.9 mg/kg,4 mg/kg
